Molecules are shown by their SMILES.

Assay [1] has as its system necrosis and inflammation of the stomach caused by ethanol. In words: protection of rat stomach from ethanol-caused necrosis and inflammation (cytoprotection, oral). Format: in vivo, rat (fasted, male). To be noted: for inhibition in vivo at 2 mg/kg / ED50: Rattus norvegicus; for inhibition in vivo at 2 mg/kg: po, 1 h, read-out: Percent Protection 2 mg/kg, at 1 hr; for inhibition in vivo at 2 mg/kg / ED50 / Percent Protection 2 mg/kg, at 1 hr: oral; for inhibition in vivo at 2 mg/kg / Percent Protection 2 mg/kg, at 1 hr: 1 hr between compound and ethanol; for ED50: 50% protection, at peak time; for Peak Time: interval between compound and ethanol at which greatest protection is observed; for cytoprotective effect (in words): rat, in vivo. As for the experimental part:
Some differences in the cytoprotective properties of these optical isomers are indicated by data in Table I. Using a method similar to that of Robert [U.S. Pat. No. 4,097,603 (1978)], fasted, male rats were treated with 8-azaprostanoids orally and various times later they were treated orally with 1.0 ml of absolute ethanol. The rats were sacrificed after ethanol administration and the stomachs were removed, inspected, and rated. The ED50 values in Table I represent the doses of 8-aza-16,16-difluoroprostanoids that gave 50% protection from the necrosis and inflammation of the stomach caused by ethanol. Values for the natural prostaglandin E1 (PGE1) and for two known nonfluorinated 8-azaprostanoids are given for comparison.
*"1 hr" refers to the one hour interval between administration of compoun
and subsequent ethanol administration.
**"Peak Time" refers to that interval between administration of compound
and administration of ethanol at which greatest protection is observed.

Assay [2] relates to histamine-induced bronchoconstriction. Briefly: aerosol histamine challenge test (histamine-induced bronchoconstriction). Format: in vivo, guinea pig. Here is the method: As has been mentioned, compounds of this invention also show activity as potential drugs for controlling bronchial asthma. Using an aerosol histamine challenge test in guinea pigs [a modification of the method of M. E. Rosenthale et al, Experientia, 26, 119 (1970)], the ability of 8-aza-16,16-difluoroprostanoids administered by i.p. injection to protect against histamine-induced bronchoconstriction was measured. Using injections of 0.5 mg/kg and evaluating the guinea pigs 60 minutes after the injections, compound 6 gave 40% protection, compound 6l (15 RS) gave 39% protection, and compound 6d(15 RS) gave 14% protection. An oral dose of compound 8 at 5 mg/kg gave 80% protection at 2 hours.

Another assay deals with PGE1. Briefly: PGE1 antagonist test on isolated rat stomach strips. An excerpt: These PGE1 antagonist tests were run on isolated rat stomach strips.
The mark [3] stands for this setting: i.p. 0.5 mg/kg, 60 minutes after injection, 0.5 mg/kg.

For orientation: ED50 means the dose at which the effect has come halfway, by size or by number of responders. Turning to `CCCCCCC(F)(F)C(O)/C=C/C1CCC(=O)N1CCCCCCC(=O)OC` (racemic) [Compound 8, racemic Methyl 7-[2-Oxo-5(RS)-5-(4,4-difluoro-3(RS)-3-hydroxy-1-n-dec-1-(E)-enyl)-1-pyrrolidinyl]heptanoate], in assay [1], the inhibition in vivo at 2 mg/kg turned out to be 91%, the ED50 turned out to be 0.005 mg/kg and the “Peak Time” value was found to be 15 min. Besides, in assay [2] (oral 5 mg/kg, at 2 hours), the “protection against histamine-induced bronchoconstriction” value amounted to 80%.

Take `CCCCCCC(F)(F)[C@@H](O)/C=C/[C@H]1CCC(=O)N1CCCCCCC(=O)OC(C)(C)C` (single isomer, unassigned) [6l (15S), tert-Butyl 7-[2-Oxo-5(R or S)-5-(4,4-difluoro-3(R or S)-3hydroxy-1-n-dec-1(E)-enyl)-1-pyrrolidinyl]heptanoate]: the inhibition in vivo at 2 mg/kg in assay [1] worked out at 9%.

As for `CCCCCCC(F)(F)[C@H](O)/C=C/[C@H]1CCC(=O)N1CCCCCCC(=O)O` [7l (15R), 7-[2-oxo-5(R)-5-(4,4-difluoro-3(R)-3-hydroxy-1n-dec-1(E)-enyl)-1-pyrrolidinyl]heptanoic acid], in assay [1], the 50% effect level (ED50) was put at a dose of 0.0007 mg/kg and the “Peak Time” value is 15 min.

For the compound `CCCCCCC(F)(F)C(O)/C=C/C1CCC(=O)N1CCCCCCC(=O)OC(C)(C)C` (racemic) [Compound 6, racemic tert-Butyl 7-[2-Oxo-5(RS)-5-(4,4-difluoro-3(RS)-3-hydroxy-1n-dec-1(E)-enyl)-1-pyrrolidinyl]-heptanoate], in assay [1], the inhibition in vivo at 2 mg/kg amounted to 32% and the “cytoprotective effect (in words)” value was “some cytoprotective activity”. The “protection against histamine-induced bronchoconstriction” value in assay [2] (i.p. 0.5 mg/kg, 60 minutes after injection) is on record as 40%. In addition, the “PGE1 antagonism (in words)” value in the assay on PGE1 is “weaker PGE1 antagonist”.

For the compound `CCCCCC(O)C=CC1CCC(=O)N1CCCCCCC(=O)OC` (stereo not shown) [methyl 7-[2-oxo-5-(3-hydroxy-1-oct-1-enyl)-1-pyrrolidinyl]heptanoate, reference compound], in assay [1], the inhibition in vivo at 2 mg/kg was 60%, the ED50 amounted to 1.8 mg/kg and the “Peak Time” value is 60 min.

For the compound `O=C(O)CCCCCCN1C(=O)CCC1/C=C/C(O)C(F)(F)c1ccccc1` (racemic) [Compound 22], the inhibition in vivo at 2 mg/kg in assay [1] is 82%.

With `CCCCC[C@H](O)/C=C/[C@H]1[C@H](O)CC(=O)[C@@H]1CCCCCCC(=O)O` [PGE1, prostaglandin E1, reference compound], in assay [1], the 50% effect level (ED50) was put at a dose of 0.011 mg/kg and the “Peak Time” value is reported as 5 min.

For `CCCCCCC(F)(F)[C@H](O)/C=C/[C@H]1CCC(=O)N1CCCCCCC(=O)OC(C)(C)C` (single isomer, unassigned) [6l (15R), tert-Butyl 7-[2-Oxo-5(R or S)-5-(4,4-difluoro-3(R or S)-3hydroxy-1-n-dec-1(E)-enyl)-1-pyrrolidinyl]heptanoate], the inhibition in vivo at 2 mg/kg in assay [1] was determined as 59%.

As for `CCCCC(F)(F)C(O)/C=C/C1CCC(=O)N1CCCCCCC(=O)O` (racemic) [Compound 14, racemic 7-[2-Oxo-5(RS)-5-(4,4-difluoro-3(RS)-3-hydroxyl-1-n-oct-1(E)-enyl)-1-pyrrolidinyl]heptanoic Acid], in assay [1], the ED50 was 0.22 mg/kg and the “Peak Time” value was found to be 60 min.

As to `CCCCC(F)(F)C(O)/C=C/C1CCC(=O)N1CCCCCCC(=O)OC(C)(C)C` (racemic) [Compound 13, racemic t-Butyl 7-[2-Oxo-5(RS)-5-(4,4-difluoro-3(RS)-3-hydroxy-1-n-oct-1(E)-enyl)-1-pyrrolidinyl]heptanoate], in assay [1], the inhibition in vivo at 2 mg/kg was 66%, the ED50 turned out to be 0.8 mg/kg and the “Peak Time” value was found to be 15 min.

With `CCCCCC(O)C=CC1CCC(=O)N1CCCCCCC(=O)O` (stereo not shown) [7-[2-oxo-5-(3-hydroxy-1-oct-1-enyl)-1-pyrrolidinyl]heptanoic acids, reference compound], in assay [1], the inhibition in vivo at 2 mg/kg stood at 40%, the ED50 is 3 mg/kg and the “Peak Time” value came out at 60 min.

`CCCCCCC(F)(F)C(O)C=CC1CCC(=O)N1CCCCCCC(=O)OC(C)(C)C` (single isomer, unassigned) [6l (15RS), tert-Butyl 7-[2-Oxo-5(R or S)5(4,4-difluoro-3-hydroxy-1n-dec-1(E)-enyl)-1-pyrrolidinyl]heptanoate]: in assay [1], the “Percent Protection 2 mg/kg, at 1 hr” value was 59%. Also, in assay [2] (setting [3]), the “protection against histamine-induced bronchoconstriction” value is reported as 39%.

`CCCCCCC(F)(F)[C@@H](O)/C=C/[C@H]1CCC(=O)N1CCCCCCC(=O)O` (single isomer, unassigned) [7l (15S), 7-[2-Oxo-5(R or S)-5-(4,4-difluoro-3(R or S)-3-hydroxy-1n-dec-1(E)-enyl)-1-pyrrolidinyl]heptanoic Acid] displayed an ED50 in assay [1] of 0.01 mg/kg.

As for `CCCCCCC(F)(F)C(O)C=CC1CCC(=O)N1CCCCCCC(=O)OC(C)(C)C` (single isomer, unassigned) [6d (15RS), tert-Butyl 7-[2-Oxo-5(R or S)5(4,4-difluoro-3-hydroxy-1n-dec-1(E)-enyl)-1-pyrrolidinyl]heptanoate], in assay [1], the “Percent Protection 2 mg/kg, at 1 hr” value is recorded as -5% and the “cytoprotective effect (in words)” value is recorded as “no (or a negative) cytoprotective effect”. The “protection against histamine-induced bronchoconstriction” value in assay [2] (setting [3]) came out at 14%. Besides, the “IC50 against PGE1” value in the assay with PGE1 fell in the range of 3 to 5 µg/mL.

`CCCCC(F)(F)C(O)/C=C/C1CCC(=O)N1CCCCCCC(=O)OC` (stereo not shown) [Compound 15]: in assay [1], the inhibition in vivo at 2 mg/kg was determined as 88%, the 50% effect level (ED50) was put at a dose of 0.025 mg/kg and the “Peak Time” value is 15 min.

Turning to `CCCCCCC(F)(F)C(O)/C=C/C1CCC(=O)N1CCCCCCC(=O)O` (racemic) [Compound 7, racemic 7-[2-Oxo-5(RS)-(4,4-difluoro-3(RS)-hydroxy-1-n-dec-1(E)-enyl)-1-pyrrolidinyl]heptanoic Acid], in assay [1], the inhibition in vivo at 2 mg/kg was found to be 91%, it took a dose of 0.0035 mg/kg to reach the 50% effect level (ED50) and the “Peak Time” value was determined as 15 min.

For `CC(C)(C)OC(=O)CCCCCCN1C(=O)CCC1/C=C/C(O)C(F)(F)c1ccccc1` (racemic) [Compound 21, racemic tert-Butyl 7-[2-Oxo-5(RS)-5-(4,4-difluoro-3(RS)-hydroxy-4-phenyl-1n-but-1(E)-enyl)-1-pyrrolidinyl]heptanoate], the inhibition in vivo at 2 mg/kg in assay [1] is 68%.

For the origin of these results see patent publication US4320136A, “8-Aza-16,16-difluoroprostanoids” (E. I. Du Pont de Nemours and Company, priority 1980, dated 1982).
